Reference: US10039816B2, “Siderophore-based immunization against gram-negative bacteria” (Massachusetts Institute of Technology, priority 2014, dated 2018)

Legend:
enterobactin (Ent) = experiment: ELISA for fecal anti-enterobactin IgA in immunized mice; type: in vivo, C57BL/6 mice; settings: 14-21 days post-immunization, persisted up to 51 days post-immunization
salmochelin (Glu-Ent) = experiment: ELISA/dot blot for fecal anti-salmochelin IgA in immunized mice; type: in vivo, C57BL/6 mice; settings: day 21 post-immunization
Ent = type: in vivo; settings: Peyer's patch cells, day 21 post-immunization; not in mock-immunized mice
Glu-Ent = type: in vivo; settings: Peyer's patch cells, day 21 post-immunization; not in mock-immunized mice
S. Typhimurium = type: in vivo, Salmonella enterica serovar Typhimurium; settings: for weight loss: C57BL/6 mice, 4 days after infection with 1×10^9 CFU S. Typhimurium, P=0.05
[1] = test system: pro-inflammatory cytokines (IL-17, IL-22), Lcn2; type: in vivo; settings: infected vs uninfected mice
intestinal microbiota = experiment: Microbiota analysis (16S rDNA, Illumina MiSeq) of colon content of immunized mice; type: in vivo; settings: for Lactobacillus spp. fraction of the microbiota: immunized, infected mice, day 4; for S. Typhimurium fraction of the intestinal microbes: mice infected with S. Typhimurium for 4 days
[2] = intranasal, first immunization and boost 14 days later; monitored up to 51 days; no sign of disease
Lipocalin-2 (LCN2) = Lipocalin-2 (LCN2) (Homo sapiens, UniProt P80188); settings: e.g., sub-nanomolar or low-nanomolar for ferric enterobactin; cited from earlier work
[3] = coupling reaction conditions
[4] = responders, 96 h after infection

Lipocalin-2 (LCN2), sequence (P80188 21-198, species assumed): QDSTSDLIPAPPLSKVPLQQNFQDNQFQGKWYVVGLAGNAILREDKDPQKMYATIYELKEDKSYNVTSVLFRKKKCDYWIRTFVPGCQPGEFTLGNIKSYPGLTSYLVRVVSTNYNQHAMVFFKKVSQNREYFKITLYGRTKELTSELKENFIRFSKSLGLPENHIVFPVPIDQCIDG

CTB-Ent
specific anti-Ent IgA antibodies in feces (ELISA) (enterobactin (Ent)): detected | IgA binding to Glu-Ent (di-glucosylated form) in fecal samples (salmochelin (Glu-Ent)): detected | spots representing Ent-antibody complexes (ELISPOT) (Ent): detected | spots representing Glu-Ent-antibody complexes (ELISPOT) (Glu-Ent): detected | weight loss (S. Typhimurium): ~6% | bacterial burden of S. Typhimurium in the colon content (S. Typhimurium; in vivo): lower bacterial burden | Salmonella burden, Peyer's patches (S. Typhimurium; [4]): lower Salmonella burden | Salmonella burden, spleen (S. Typhimurium; [4]): lower Salmonella burden | Salmonella burden, terminal ileum (S. Typhimurium; [4]): lower Salmonella burden | expression of pro-inflammatory cytokines (IL-17, IL-22) and Lcn2 in response to infection [1]: similarly upregulated | Lactobacillus spp. fraction of the microbiota (intestinal microbiota): ~60% | S. Typhimurium fraction of the intestinal microbes (intestinal microbiota): 7% | level of Escherichia spp. (intestinal microbiota; vs low level in mock-immunized mice): further reduced | tolerability of the two immunizations [2]: well tolerated

Cholera toxin B subunit [CTB, reference compound]
weight loss (S. Typhimurium): ~10% | expression of pro-inflammatory cytokines (IL-17, IL-22) and Lcn2 in response to infection [1]: similarly upregulated | Lactobacillus spp. fraction of the microbiota (intestinal microbiota): ~19% | S. Typhimurium fraction of the intestinal microbes (intestinal microbiota): ca. 32%

O=C(N[C@H]1COC(=O)[C@@H](NC(=O)c2cccc([O-])c2[O-])COC(=O)[C@@H](NC(=O)c2cccc([O-])c2[O-])COC1=O)c1cccc([O-])c1[O-].[Fe+3] [ferric enterobactin]
capture by LCN2 (Lipocalin-2 (LCN2)): high affinity

O=C(N[C@H]1COC(=O)[C@@H](NC(=O)c2cccc(O)c2O)COC(=O)[C@@H](NC(=O)c2cccc(O)c2O)COC1=O)c1cccc(O)c1O [Enterobactin, enterobactin]
hydrolysis of the trilactone ring in aqueous solution [3]: slowly undergoes hydrolysis

salmochelins
capture by LCN2 (Lipocalin-2 (LCN2)): cannot capture
